We go through 15 compounds from patent US20100249402A1, “NOVEL BENZAMIDINE DERIVATIVES, PROCESS FOR THE PREPARATION THEREOF AND PHARMACEUTICAL COMPOSITION FOR PREVENTING OR TREATING OSTEPOROSIS COMPRISING THE SAME” (DONG WHA PHARMACEUTICAL CO. LTD., priority 2007, published 2010).

Read-outs that look alike come from different tables or passages of the source.

A word on the inhibition: it is how much of the control response was suppressed.

In one data set the test system is HOS. Description: Cytotoxicity test (MTT), HOS. The class given is cell-based. As to conditions: 10^−6 M, cultured for 72 hrs, in comparison with the control group. As for the experimental part: (§1) The cytotoxic effect of the benzamidine derivative of the present invention was evaluated by carrying out the experiment described below.
(§2) The test substance was diluted in an appropriate solvent at a concentration of 10^−2 M. This substance was diluted in an appropriate culture medium for the cells used in the cytotoxicity test to a concentration of 10^−6M, and loaded into a 96-well plate in 100 μl per well. The cell lines to be used in the cytotoxicity test were plated on a 96-well plate in a dose of 1.0×10^4 cell/100 μl per well, and cultured for 72 hrs. 25 μl of MTT[3-(4,5-dimethyl-2-thiazolyl)-2,5-diphenyl-2H-tetrazolium bromide] dissolved in PBS (2 mg/mL) were added before 4 hrs of the end of culture. After completion of the reaction, the plates were centrifuged, the medium was discarded and 100 μl of DMSO was added to dissolve formazan. Finally, the absorbance of the developed plates was measured at 540 nm. The survival rates of the cells were expressed as % concentration values in comparison with the control group.

The subject of the next data set is MC3T3-E1. Description: Cytotoxicity test (MTT), MC3T3-E1. The class given is cell-based. The following applies: 10^−6 M, cultured for 72 hrs, in comparison with the control group. As for the experimental part:
as §1, §2

In a further data set the test system is calvaria. Description: Cytotoxicity test (MTT), calvaria. In kind it is cell-based. As to conditions: 10^−6 M, cultured for 72 hrs, in comparison with the control group. The protocol: as §1, §2
For data set [1], the system named is osteoclast differentiation. In words: Inhibitory effects on osteoclast differentiation (bone marrow cell/osteoblast co-culture, TRAP staining). In kind it is cell-based, mice. The following applies: for inhibition at 1 µM: Mus musculus, Osteoclast, 168 h, read-out: Inhibition of osteoclast differentiation (%). As for the experimental part: The effect of the benzamidine derivative of the present invention on osteoclast formation and differentiation process was evaluated via co-culture with an osteoblast.
Tibia was aseptically ectomized from 6 to 8-week-old male ddY mice to harvest bone marrow cells by using a syringe (21G, Korea Green Cross). The bone marrow cells were suspended in 5 mL of an α-MEM medium (Gibco BRL Co., supplemented with sodium bicarbonate (2.0 g/L), streptomycin (100 mg/L) and penicillin ([…]), filtered and then sterilized). The harvested cells were centrifuged at 600×g for 5 minutes to collect the whole quantity. To remove the red blood cells in the bone marrow cells, 3 mL of Tris HCl (0.83% NH4Cl, pH 7.5) was added and well mixed. After centrifugation, the numbers of the eukaryotic cells in the harvested bone marrow cells were counted, and then immediately used for a co-culture system.
The progenitor bone and the parietal bone were aseptically ectomized from 1 to 2-day-old neonatal ICR mice, washed with a phosphate butter solution (PBS), and treated with a mixed enzyme solution (0.2% collagenase and 0.1% dispase) six to seven times (10, 10, 10, 20, 20 and 20 min), and then 3 to 6 groups of the cells, in which a large volume of cells having osteoblastic characteristics were contained, were intensively collected, and washed with medium (serum-free α-MEM). The washed cells were cultured in the α-MEM medium containing 10% FBS for 2 to 3 days. After sub-culturing, the collected cells were used for this experiment, and diluted to a concentration of 1×10^6 cells/mL for storage at −70° C.
The benzamidine derivative of the present invention was dissolved in a sterile distilled water or ethanol to be diluted to a desired concentration. The final volume of the sample added to the cell culture medium was set at a ratio of 1:1000.
The bone marrow cells prepared in the above 1-1 and the osteoblast were co-cultured. Both the bone marrow cells (25,000 cells/cm^2) and the osteoblast (10,000 cells/cm^2) were plated in a 96-well plate using α-MEM medium containing FBS, and then cultured with the samples to be tested for 7 days. Differentiation factors, such as dexamethasone (10^−7 M) and vitamin D (10^−8 M), were also co-added to the medium from the first day of cultivation. The medium was changed with a fresh media containing a mixture of the samples and the differentiation factors every 2 to 3 days.
TRAP was used as a marker to measure the matured osteoclast in consideration of its characteristics showing a positive reaction to a TRAP staining solution.
The TRAP staining solution was prepared in such the manner that 5 mg of naphthol AS-MS phosphate (sigma N-4875) as a substrate and 25 mg of a coloring agent (Fast Red Violet LB salt) were dissolved in N,N-dimethylformamide (about 0.5 mL). 50 ml of a 0.1 N […] buffer solution containing 50 mM tartaric acid (pH 5.0) was added thereto, and the mixture was stored in a refrigerator prior to use as a staining solution.
After culturing the cells for 7 days, the medium was removed from the wells, the cells were once washed with PBS, and then fixed with PBS containing 10% formalin for 2 to 5 min. The cells were fixed again in a mixed solution of ethanol and acetone (1/1) for about 1 min, and dried off. The cells were further treated by the TRAP staining solution for 15 minutes, and washed with water and dried off. The osteoclasts with 3 or more nuclei showing a TRAP-positive reaction were counted under a microscopic examination. Each of tests was confirmed at least three times. The inhibitory effect on osteoclast differentiation of each experimental group, relative to negative controls, was expressed as a percentage (%).

[2] abbreviates: 1 μm, 7 days co-culture, TRAP-positive osteoclasts with 3 or more nuclei, relative to negative controls.

As to `CNc1nc(-c2ccc(OCCCCCOc3ccc(C(=N)NO)cc3)cc2)c(CN2CCOCC2)s1` [Example 50, N-hydroxy-4-{5-[4-(2-methylamino-5-morpholin-4-ylmethyl-thiazol-4-yl)-phenoxy]-pentyloxy}-benzamidine], the Cell survival rate in the data set on HOS is recorded as 102%; in the data set with MC3T3-E1, 91%; in the data set with calvaria it was 90%. In addition, the inhibition at 1 µM in data set [1] (setting [2]) stood at 100%.
On the same counts, the results for `Cc1nc(-c2ccc(OCCCCCOc3ccc(C(=N)NO)cc3)cc2)c(N2CCN(C)CC2)s1` [Example 2, N-hydroxy-4-(5-{4-[2-methyl-5-(4-methyl-piperazin-1-yl)-thiazol-4-yl]-phenoxy}-pentyloxy)-benzamidine] are 107.0%, 91.8%, 87.9% and 78.6%.
Turning to `Cc1nc(-c2ccc(OCCCCCOc3ccc(C(=N)NO)cc3)cc2)c(CN2CCSCC2)s1` [Example 10, N-hydroxy-4-{5-[4-(2-methyl-5-thiomorpholin-4-ylmethyl-thiazol-4-yl)-phenoxy]-pentyloxy}-benzamidine], the Cell survival rate in the data set on HOS came to 101%; in the data set on MC3T3-E1 it was 93.4%; in the data set on calvaria it was 94.5%. In addition, the inhibition at 1 µM in data set [1] came out at 92.9%.
As to `Cc1nc(-c2ccc(OCCCCCOc3ccc(C(=N)NO)cc3)cc2)c(CN2CCCCC2)s1` [Example 11, N-hydroxy-4-{5-[4-(2-methyl-5-piperidin-1-ylmethyl-thiazol-4-yl)-phenoxy]-pentyloxy}-benzamidine], the Cell survival rate turned out to be 101.9% in the data set on HOS, 91.9% in the data set with MC3T3-E1 and 95.8% with calvaria. In data set [1] (setting [2]), the inhibition at 1 µM was 92.3%.
Take `CN1CCN(c2sc(N3CCOCC3)nc2-c2ccc(OCCCCCOc3ccc(C(=N)NO)cc3)cc2)CC1` [Example 4, N-hydroxy-4-(5-{4-[5-(4-methyl-piperazin-1-yl)-2-morpholin-4-yl-thiazol-4-yl]-phenoxy}-pentyloxy)-benzamidine]: the Cell survival rate stood at 104% in the data set on HOS, 89% in the data set with MC3T3-E1 and 93% with calvaria. In addition, the inhibition at 1 µM in data set [1] was 100%.
As to `Cc1nc(-c2ccc(OCCCCCOc3ccc(C(=N)NO)cc3)cc2)c(CNCCCn2ccnc2)s1` [Example 18], the Cell survival rate amounted to 106% in the data set on HOS, 99% in the data set with MC3T3-E1 and 94% in the data set with calvaria. Also, the “Inhibition of osteoclast differentiation (%)” value in data set [1] (setting [2]) was 100%.
`CN(CCN1CCOCC1)c1nc(-c2ccc(OCCCCCOc3ccc(C(=N)NO)cc3)cc2)c(CN2CCOCC2)s1` [Example 28, N-hydroxy-4-[5-(4-{2-[methyl-(2-morpholin-4-yl-ethyl)-amino]-5-morpholin-4-ylmethyl-thiazol-4-yl}-phenoxy)-pentyloxy]-benzamidine]: the Cell survival rate came to 114% in the data set with HOS, 11% in the data set with MC3T3-E1 and 104% in the data set with calvaria. Besides, in data set [1] (setting [2]), the inhibition at 1 µM is 100%.
On the same counts, the results for `CC(C)NCc1sc(N(C)CCN2CCOCC2)nc1-c1ccc(OCCCCCOc2ccc(C(=N)NO)cc2)cc1` [Example 32, N-hydroxy-4-[5-(4-{5-(isopropylamino-methyl)-2-[methyl-(2-morpholin-4-yl-ethyl)-amino]-thiazol-4-yl}-phenoxy)-pentyloxy]-benzamidine] are 106%, 104%, 98% and 100%.
With `CCCCNCc1sc(C)nc1-c1ccc(OCCCCCOc2ccc(C(=N)NO)cc2)cc1` [Example 13, N-hydroxy-4-{5-[4-(5-butylaminomethyl-2-methyl-thiazol-4-yl)-phenoxy]-pentyloxy}-benzamidine], the Cell survival rate amounted to 106% in the data set on HOS, 93% in the data set on MC3T3-E1 and 96% with calvaria. Also, in data set [1] (setting [2]), the inhibition at 1 µM stood at 100%.
For `CNc1sc(C)nc1-c1ccc(OCCCCCOc2ccc(C(=N)NO)cc2)cc1` [Example 37, N-hydroxy-4-{5-[4-(2-methyl-5-methylamino-thiazol-4-yl)-phenoxy]-pentyloxy}-benzamidine], the Cell survival rate in the data set on HOS was determined as 105.3%; with MC3T3-E1, 94.3%; in the data set on calvaria, 92.5%. The inhibition at 1 µM in data set [1] (setting [2]) stood at 83.3%.
Consider `Cc1nc(-c2ccc(OCCCCCOc3ccc(C(=N)NO)cc3)cc2)c(CN2CCOCC2)s1` [Example 8, N-hydroxy-4-{5-[4-(2-methyl-5-morpholin-4-ylmethyl-thiazol-4-yl)-phenoxy]-pentyloxy}-benzamidine], for which the Cell survival rate is given as 102.3% with HOS, 94.7% with MC3T3-E1 and 90.7% with calvaria. Besides, the inhibition at 1 µM in data set [1] (setting [2]) is 96.4%.
Consider `CCCNCc1sc(C)nc1-c1ccc(OCCCCCOc2ccc(C(=N)NO)cc2)cc1` [Example 16, N-hydroxy-4-{5-[4-(2-methyl-5-propylaminomethyl-thiazol-4-yl)-phenoxy]-pentyloxy}-benzamidine], for which the Cell survival rate worked out at 100% in the data set on HOS, 92% in the data set on MC3T3-E1 and 95% in the data set on calvaria. Moreover, in data set [1], the inhibition at 1 µM stood at 100%.
As for `CN(Cc1ccncc1)c1nc(-c2ccc(OCCCCCOc3ccc(C(=N)NO)cc3)cc2)c(CN2CCOCC2)s1` [Example 24, N-hydroxy-4-(5-{4-[2-(methyl-pyridin-4-ylmethyl-amino)-5-morpholin-4-ylmethyl-thiazol-4-yl]-phenoxy}-pentyloxy)-benzamidine], the Cell survival rate in the data set with HOS came to 112%; in the data set on MC3T3-E1 it was 86%; in the data set on calvaria, 95%. For the same compound, the inhibition at 1 µM in data set [1] was found to be 100%.
For the compound `CNc1nc(-c2ccc(OCCCCCOc3ccc(C(=N)NO)cc3)cc2)c(N2CCOCC2)s1` [Example 23, N-hydroxy-4-{5-[4-(2-methylamino-5-morpholin-4-yl-thiazol-4-yl)-phenoxy]-pentyloxy}-benzamidine], the Cell survival rate is given as 104.0% in the data set on HOS, 92.0% in the data set on MC3T3-E1 and 95.8% with calvaria. Moreover, the inhibition at 1 µM in data set [1] (setting [2]) was 58.9%.
`N=C(NO)c1ccc(OCCCCCOc2ccc(-c3nc(N4CCOCC4)sc3N3CCOCC3)cc2)cc1` [Example 5, N-hydroxy-4-{5-[4-(2,5-di-morpholin-4-yl-thiazol-4-yl)-phenoxy]-pentyloxy}-benzamidine]: the Cell survival rate in the data set on HOS is reported as 100%; with MC3T3-E1 it was 93%; in the data set on calvaria it was 98%. Also, the inhibition at 1 µM in data set [1] (setting [2]) stood at 98%.
